Results: PubChem BioAssay AID2060494 (Molecular Pharmacology Branch, DTP, NCI, 2025)

System: 435261-313-R-J1-PDC complex spheroid viability
Assay: Anticancer human tumor 435261-313-R-J1-PDC patient-derived colon adenocarcinoma cell line growth inhibition [GQUAD]
Details: for IC50: curve of first compound; for viability, T/C: stronger effect = lower value
Summary of the method: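 Viability of tumor cells grown as complex spheroids with endothelial and stromal cells, exposed to drug combinations. Top concentration at or near clinical Cmax (else 10 microM), diluted in half-log increments.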

[1] = second compound 0.0316 µM, first compound 0.0316 µM
[2] = second compound 0.0316 µM, first compound 0.1 µM
[3] = second compound 0.0316 µM, first compound 0.316 µM
[4] = second compound 0.0316 µM, first compound 1 µM
[5] = second compound 0.0316 µM, first compound 3.16 µM
[6] = second compound 0.0316 µM, first compound 10 µM
[7] = second compound 0.1 µM, first compound 0.0316 µM
[8] = second compound 0.1 µM, first compound 0.1 µM
[9] = second compound 0.1 µM, first compound 0.316 µM
[10] = second compound 0.1 µM, first compound 1 µM
[11] = second compound 0.1 µM, first compound 3.16 µM
[12] = second compound 0.1 µM, first compound 10 µM
[13] = second compound 0.316 µM, first compound 0.0316 µM
[14] = second compound 0.316 µM, first compound 0.1 µM
[15] = second compound 0.316 µM, first compound 0.316 µM
[16] = second compound 0.316 µM, first compound 1 µM
[17] = second compound 0.316 µM, first compound 3.16 µM
[18] = second compound 0.316 µM, first compound 10 µM
[19] = second compound 1 µM, first compound 0.0316 µM
[20] = second compound 1 µM, first compound 0.1 µM
[21] = second compound 1 µM, first compound 0.316 µM
[22] = second compound 1 µM, first compound 1 µM
[23] = second compound 1 µM, first compound 3.16 µM
[24] = second compound 1 µM, first compound 10 µM
[25] = second compound 3.16 µM, first compound 0.0316 µM
[26] = second compound 3.16 µM, first compound 0.1 µM
[27] = second compound 3.16 µM, first compound 0.316 µM
[28] = second compound 3.16 µM, first compound 1 µM
[29] = second compound 3.16 µM, first compound 3.16 µM
[30] = second compound 3.16 µM, first compound 10 µM
[31] = second compound 10 µM, first compound 0.0316 µM
[32] = second compound 10 µM, first compound 0.1 µM
[33] = second compound 10 µM, first compound 0.316 µM
[34] = second compound 10 µM, first compound 1 µM
[35] = second compound 10 µM, first compound 3.16 µM
[36] = second compound 10 µM, first compound 10 µM
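Also: spheroids exposed to the agents for seven days before readout.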
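For viability, T/C in this document: percent of vehicle control viability with DMSO wells as 100%.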

SMILES: COc1cc(C2c3cc4c(cc3C(OC3OC5COC(C)OC5C(O)C3O)C3COC(=O)C23)OCO4)cc(OC)c1O (stereo not drawn) + Cc1cnc(CNC(=O)c2c(=O)c3ccc(N4CCCN(C)CC4)nc3n3c2sc2ccccc23)cn1
- IC50 (second compound 0.0316 µM): > 10000 nM
- IC50 (second compound 0.1 µM): > 10000 nM
- IC50 (second compound 0.316 µM): > 10000 nM
- IC50 (second compound 1 µM): < 31.6 nM
- IC50 (second compound 3.16 µM): < 31.6 nM
- IC50 (second compound 10 µM): < 31.6 nM
- viability, T/C [1]: 77.6%
- viability, T/C [2]: 59.1%
- viability, T/C [3]: 60.8%
- viability, T/C [4]: 56.3%
- viability, T/C [5]: 55%
- viability, T/C [6]: 54.2%
- viability, T/C [7]: 86.6%
- viability, T/C [8]: 63.6%
- viability, T/C [9]: 54.2%
- viability, T/C [10]: 60.7%
- viability, T/C [11]: 47.1%
- viability, T/C [12]: 54.5%
- viability, T/C [13]: 48.3%
- viability, T/C [14]: 60%
- viability, T/C [15]: 53.1%
- viability, T/C [16]: 53%
- viability, T/C [17]: 51.8%
- viability, T/C [18]: 50.7%
- viability, T/C [19]: 31.6%
- viability, T/C [20]: 38.1%
- viability, T/C [21]: 39%
- viability, T/C [22]: 43%
- viability, T/C [23]: 34.3%
- viability, T/C [24]: 35.6%
- viability, T/C [25]: 16.7%
- viability, T/C [26]: 16.3%
- viability, T/C [27]: 11.1%
- viability, T/C [28]: 12%
- viability, T/C [29]: 19.7%
- viability, T/C [30]: 5.43%
- viability, T/C [31]: 0.14%
- viability, T/C [32]: 0.13%
- viability, T/C [33]: 0.12%
- viability, T/C [34]: 0.12%
- viability, T/C [35]: 0.2%
- viability, T/C [36]: 0.14%

SMILES: O=C(c1cc(Cc2n[nH]c(=O)c3ccccc23)ccc1F)N1CCN(C(=O)C2CC2)CC1 + CN(C)c1ccc(Nc2c3ccc(NC(=O)CCN4CCCC4)cc3nc3cc(NC(=O)CCN4CCCC4)ccc23)cc1
- IC50 (second compound 0.0316 µM): > 10000 nM
- IC50 (second compound 0.1 µM): > 10000 nM
- IC50 (second compound 0.316 µM): > 10000 nM
- IC50 (second compound 1 µM): > 10000 nM
- IC50 (second compound 3.16 µM): > 10000 nM
- IC50 (second compound 10 µM): < 31.6 nM
- viability, T/C [1]: 96%
- viability, T/C [2]: 133%
- viability, T/C [3]: 84.8%
- viability, T/C [4]: 80.8%
- viability, T/C [5]: 123%
- viability, T/C [6]: 89.4%
- viability, T/C [7]: 101%
- viability, T/C [8]: 83.7%
- viability, T/C [9]: 118%
- viability, T/C [10]: 102%
- viability, T/C [11]: 90%
- viability, T/C [12]: 81.9%
- viability, T/C [13]: 109%
- viability, T/C [14]: 92.5%
- viability, T/C [15]: 97.8%
- viability, T/C [16]: 84.2%
- viability, T/C [17]: 85.2%
- viability, T/C [18]: 69.9%
- viability, T/C [19]: 85%
- viability, T/C [20]: 78%
- viability, T/C [21]: 70.1%
- viability, T/C [22]: 70%
- viability, T/C [23]: 95.8%
- viability, T/C [24]: 69.2%
- viability, T/C [25]: 80.5%
- viability, T/C [26]: 53.2%
- viability, T/C [27]: 66.8%
- viability, T/C [28]: 60%
- viability, T/C [29]: 77.4%
- viability, T/C [30]: 57.6%
- viability, T/C [31]: 37.3%
- viability, T/C [32]: 46.2%
- viability, T/C [33]: 31%
- viability, T/C [34]: 49.3%
- viability, T/C [35]: 36.4%
- viability, T/C [36]: 32.9%

SMILES: CC1COCCN1c1cc(-c2ccnn2C)c2ccnc(-c3ccn[nH]3)c2n1 (stereo not drawn) + CN(C)c1ccc(Nc2c3ccc(NC(=O)CCN4CCCC4)cc3nc3cc(NC(=O)CCN4CCCC4)ccc23)cc1
- IC50 (second compound 0.0316 µM): 804 nM
- IC50 (second compound 0.1 µM): 500 nM
- IC50 (second compound 0.316 µM): 725 nM
- IC50 (second compound 1 µM): 1030 nM
- IC50 (second compound 3.16 µM): 145 nM
- IC50 (second compound 10 µM): < 31.6 nM
- viability, T/C [1]: 87%
- viability, T/C [2]: 76%
- viability, T/C [3]: 76.2%
- viability, T/C [4]: 43.6%
- viability, T/C [5]: 28.8%
- viability, T/C [6]: 25.2%
- viability, T/C [7]: 88.4%
- viability, T/C [8]: 85.9%
- viability, T/C [9]: 55.9%
- viability, T/C [10]: 38.5%
- viability, T/C [11]: 38.8%
- viability, T/C [12]: 23.1%
- viability, T/C [13]: 71.8%
- viability, T/C [14]: 80.7%
- viability, T/C [15]: 60.4%
- viability, T/C [16]: 44.5%
- viability, T/C [17]: 32.8%
- viability, T/C [18]: 22.9%
- viability, T/C [19]: 64.6%
- viability, T/C [20]: 69.5%
- viability, T/C [21]: 61.8%
- viability, T/C [22]: 48.2%
- viability, T/C [23]: 35%
- viability, T/C [24]: 17.2%
- viability, T/C [25]: 89%
- viability, T/C [26]: 48.3%
- viability, T/C [27]: 41.5%
- viability, T/C [28]: 24.5%
- viability, T/C [29]: 16.4%
- viability, T/C [30]: 4.38%
- viability, T/C [31]: 27.1%
- viability, T/C [32]: 22.1%
- viability, T/C [33]: 21.6%
- viability, T/C [34]: 14.1%
- viability, T/C [35]: 6.17%
- viability, T/C [36]: 1.51%

SMILES: CC(C)(O)C1CCC(Nc2ccc3ncc(-c4cccc(C(F)(F)F)c4)n3n2)CC1 (stereo not drawn) + Cc1[nH]c2ccc(F)cc2c1-c1nc2c3cccnc3c3ncccc3c2[nH]1
- IC50 (second compound 0.0316 µM): 605 nM
- IC50 (second compound 0.1 µM): 683 nM
- IC50 (second compound 0.316 µM): 520 nM
- IC50 (second compound 1 µM): 229 nM
- IC50 (second compound 3.16 µM): < 31.6 nM
- IC50 (second compound 10 µM): < 31.6 nM
- viability, T/C [1]: 85.1%
- viability, T/C [2]: 93.4%
- viability, T/C [3]: 79%
- viability, T/C [4]: 27.4%
- viability, T/C [5]: 6.6%
- viability, T/C [6]: 11.2%
- viability, T/C [7]: 80%
- viability, T/C [8]: 79.6%
- viability, T/C [9]: 98.3%
- viability, T/C [10]: 32.2%
- viability, T/C [11]: 8.63%
- viability, T/C [12]: 8.09%
- viability, T/C [13]: 92.8%
- viability, T/C [14]: 90.7%
- viability, T/C [15]: 64.5%
- viability, T/C [16]: 31.5%
- viability, T/C [17]: 3.9%
- viability, T/C [18]: 11.5%
- viability, T/C [19]: 63.4%
- viability, T/C [20]: 61%
- viability, T/C [21]: 44.1%
- viability, T/C [22]: 27.3%
- viability, T/C [23]: 6.32%
- viability, T/C [24]: 5.71%
- viability, T/C [25]: 23.6%
- viability, T/C [26]: 19.2%
- viability, T/C [27]: 30.8%
- viability, T/C [28]: 22.3%
- viability, T/C [29]: 3.91%
- viability, T/C [30]: 3.07%
- viability, T/C [31]: 18.3%
- viability, T/C [32]: 20.8%
- viability, T/C [33]: 18.5%
- viability, T/C [34]: 20.4%
- viability, T/C [35]: 1.4%
- viability, T/C [36]: 3.39%
